According to the METLIN SMRT retention time set (Domingo-Almenara et al. 2019):

Test: gradient 5% acetonitrile 3 min, to 50% in 2 min, to 85% in 15 min, held 3 min, 100 µL/min
Settings: column: Zorbax Extend-C18 2.1 x 50 mm; eluents: water / acetonitrile, 0.1% formic acid
Procedure, shortened: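 The mobile phases were water and acetonitrile, each with 0.1% formic acid, pumped at 100 μL/min through a Zorbax Extend-C18 column (2.1 × 50 mm, 1.8 μm). Pure standards were injected as mixtures of ~100 molecules and detected by a quadrupole time-of-flight mass spectrometer in positive and negative ionization mode. Retention time came from computationally picked adduct peaks, each inspected by hand.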

| RP-LC retention time [s] | SMILES |
| --- | --- |
| 561 | CCc1ccc2nc(C)cc(C(N)=O)c2c1 |
| 976 | COc1ccc(-c2ccc(C(=O)N3CCCc4ccccc43)o2)c([N+](=O)[O-])c1 |
| 661 | O=C1[C@H]2CN(Cc3ccccc3Cl)C[C@H]2C(=O)N1CCN1CCc2ccccc2C1 |
| 648 | CC(=O)N1CCC(C(=O)Nc2cc(-c3nnc(C)o3)sc2C)CC1 |
| 707 | CC(=O)N1CCc2cc(N3CC(C(=O)NCc4ccccc4C)CC3=O)ccc21 (centres undefined) |
| 884 | O=C1[C@@H]2[C@H]3CC[C@H](C3)[C@@H]2C(=O)N1C[C@@H]1CCCC[C@H]1CN1CCN(c2nsc3ccccc23)CC1 |
| 679 | Cc1cc(C)c(NC(=O)Cn2nc3c4cccc(C)c4ncn3c2=O)c(C)c1 |
| 650 | O=C(NCCn1c(=O)n(Cc2ccccc2)c2cccnc21)c1cccnc1 |
| 939 | COCCN(CCOC)c1nc(S(=O)(=O)c2ccc(C)cc2)c(Cl)s1 |
| 743 | O=C([C@@H]1C[C@H](F)CN1S(=O)(=O)c1ccccc1F)N1CCCCC1 |
| 650 | COc1ccc(C(=O)N2CCC(Oc3cc(N(C)C)ncn3)C2)cc1 (centres undefined) |
| 739 | O=C(NCc1cccc(Br)c1)C1CCCN(c2cnc3nccnc3c2)C1 (centres undefined) |
| 668 | Cc1ncn(CC(=O)Nc2ccccc2Cl)c(=O)c1C |
| 693 | CCOc1ccc2ncc(S(=O)(=O)c3ccc(C)c(C)c3)c(N3CCN(CC)CC3)c2c1 |
| 803 | O=C(Cc1cn(Cc2ccc(F)cc2)c2ccccc12)N1CCN(C(=O)c2ccco2)CC1 |
| 694 | COc1cc(NC(=O)N2CCCN(c3ccc(=O)n(-c4ccccc4)n3)CC2)cc(OC)c1OC |
| 957 | Cc1nc(-c2noc(-c3cccc(F)c3)n2)cn1CC(=O)Nc1cccc(Cl)c1 |
| 805 | O=C(NCCc1ccccc1)N1CCCn2nc(-c3cccs3)cc2C1 |
| 990 | O=C(c1ccco1)N1CCN(c2ccc(-c3noc(C4CCC4)n3)cc2)CC1 |
| 1010 | Cc1ccc(C)c(N2CCN(c3ccnc(SCC(=O)Nc4ccccc4F)n3)CC2)c1 |
| 662 | Cn1cc(-c2ccncc2)cc1C(=O)NCc1ccc(Br)cc1 |
| 901 | Cc1ccc(NC(=O)C2CCN(C(=O)c3ncn4c3COC(c3ccc(F)cc3)C4)CC2)cc1Cl (centres undefined) |

| RP-LC retention time [s] | SMILES |
| --- | --- |
| 708 | COc1ccc(CC(=O)NCc2c(C)cc(C)nc2-c2ccc(OC)cc2)cc1 |
| 1030 | COc1ccc(NC(=O)N2CCc3cn(CC(C)C)c4cccc(c34)C2)cc1 |
| 904 | CCCn1cc(S(=O)(=O)Nc2ccccc2OC)c2cccnc21 |
| 754 | CCc1noc(NC(C)=O)c1-c1ccc(OC)c(S(=O)(=O)Nc2cccc(OC)c2)c1 |
| 1130 | Cc1ccc(S(=O)(=O)N2CCCC2)cc1-c1nnc(-c2ccc(Cl)cc2)o1 |
| 686 | O=C(NCCCN1CCCC1=O)C(=O)NCCC1=CCCCC1 |
| 706 | CC(C)N1CCN(C(=O)c2csc(N3CCN(c4ccc(Cl)cc4)CC3)n2)CC1 |
| 946 | CC(=O)N1CCc2c(sc(NC(=O)C3(c4ccc(Cl)cc4)CCCC3)c2C#N)C1 |
| 802 | CCn1c(=O)c(C(=O)NCc2cc(F)ccc2F)nc2cccnc21 |
| 753 | COc1cccc(-c2n[nH]c3c2C(c2ccc(OC)cc2OC)NC3=O)c1 (centres undefined) |
| 1260 | Cc1ccc(Sc2nccnc2N2CCC(C(=O)Nc3cccc(Br)c3)CC2)cc1 |
| 939 | O=C(O)c1ccccc1-c1ccccc1C(=O)Nc1ccc2c(c1)Cc1ccccc1-2 |
| 849 | O=S(=O)(NCCc1noc(-c2ccccc2)n1)c1cccs1 |
| 871 | Cc1nnc2ccc(-c3noc(-c4ccc5c(c4)OCO5)n3)cn12 |
| 680 | COc1ccc(OC)c(CNC(=O)C2CCN(c3cnc4nccnc4c3)CC2)c1 |
| 670 | CCn1cc(-c2ccccc2)cc1C(=O)NCCN1CCCC1 |
| 1240 | COC(=O)c1cnc(N2CCN(c3ccccc3F)CC2)c2ccccc12 |
| 659 | O=S(=O)(Nc1ccc(F)cc1)c1cccn2cnnc12 |
| 858 | CCN(c1ccccc1)S(=O)(=O)c1ccc(C(=O)Nc2cc(C)nn2C(C)C)cc1 |
| 969 | O=C(CCc1conc1-c1ccc(F)cc1)NC1CCCCCC1 |
| 738 | Cc1c(Cl)cccc1NC(=O)N1CCCC1c1nncn1-c1ccccc1 (centres undefined) |
| 596 | COc1ccc(-n2c(=O)n(C)c(=O)c3cc(C(=O)NCc4ccncc4)cnc32)cc1 |

| RP-LC retention time [s] | SMILES |
| --- | --- |
| 759 | Cc1cccc(N2CCN(C(=O)c3cn(-c4ccc(C#N)cc4)cn3)CC2)c1 |
| 766 | CCCNC(=O)Cn1nc2cc(-c3ccccc3)nc(C)n2c1=O |
| 975 | CCCn1c(=O)sc2cc(S(=O)(=O)N3CCC(C(=O)NCc4cccc(C)c4)CC3)ccc21 |
| 922 | COc1cccc(CNC(=O)C2(C)CCCN(S(=O)(=O)c3ccc(F)cc3F)C2)c1 (centres undefined) |
| 624 | Cn1cccc1C(=O)N1CC[C@@H]2CN(S(C)(=O)=O)[C@@H]2C1 |
| 949 | Cc1ccc(-c2nc(C)c(C(=O)NC(C)C)s2)cc1 |
| 1060 | COC(=O)C(C)Oc1cc(O)c2c(=O)cc(-c3ccccc3)oc2c1 (centres undefined) |
| 580 | Cc1ccc(CN2C(=O)CC(N3CCCCC3)C2=O)cc1 (centres undefined) |
| 586 | COc1cccc(-c2[nH]ncc2CN2CCC3(CCC3O)CC2)c1 (centres undefined) |
| 794 | CCCn1cc(CCNC(=O)c2cc3ccccc3[nH]2)c2cccnc21 |
| 605 | CCOc1ccc(CNc2ccc3[nH]c(=O)[nH]c3c2)cc1 |
| 964 | CCS(=O)(=O)N1CCc2ccc(NC(=O)COc3ccc(Cl)cc3Cl)cc2C1 |
| 860 | Cc1ccc(NC(=O)C2CCCN2S(=O)(=O)c2cc3c(cc2C)NC(=O)C(C)O3)cc1F (centres undefined) |
| 810 | COC(=O)CNC(=O)Nc1ccccc1-c1cc2ccccc2[nH]1 |
| 1040 | CCOc1ccc(-c2ccc(=O)n(CCc3nc(-c4cccc(F)c4)no3)n2)cc1 |
| 880 | Cc1nc(-c2ccc(N3CCN(C(=O)COc4ccc(F)cc4)CC3)nc2)sc1C |
| 551 | Cn1c(C2CCN(C(=O)Cc3ccc(Cl)cc3)C2)nc2ccncc21 (centres undefined) |
| 858 | CCOC(=O)N1CCN(S(=O)(=O)c2ccc(OCC)cc2OCC)CC1 |
| 798 | CCc1cc(=O)n(CC(=O)Nc2ccc(C)c(C)c2)c(N2CCOCC2)n1 |
| 698 | COc1ccc(-c2ccc3c(N4CCOC[C@@H]4C)nc(N4CCOC[C@@H]4C)nc3n2)cc1CO |
| 626 | Cc1ccsc1C(=O)N1CCC(C2CCN(S(C)(=O)=O)CC2)C1 (centres undefined) |
| 918 | COc1ccc(-c2nc(CCNS(=O)(=O)c3ccc(Cl)s3)cs2)cc1OC |

| RP-LC retention time [s] | SMILES |
| --- | --- |
| 733 | CC(C)C(=O)NCc1cnn(-c2ccc(C(=O)Nc3ccc4c(c3)OCCO4)cc2)c1 |
| 621 | Cc1cccc(OCC(=O)N2CCN(c3cc(C)n4cnnc4n3)CC2)c1 |
| 1000 | CCOc1ccc(-n2cc(C(=O)OCC(=O)OC)c3ccccc3c2=O)cc1 |
| 606 | Cc1[nH]c(C(=O)N2CCC(CC(=O)NCCCN3CCCCC3)CC2)c(C)c1C |
| 656 | Cc1cnc(C2CN(S(=O)(=O)c3cccc(F)c3)C2)n1CC1CC1 |
| 656 | CCNc1nc(C)cc(N2CCN(C(=O)Nc3ccc(C)cc3C)CC2)n1 |
| 940 | CCN1C(=O)COc2ccc(-c3csc(NC(=O)c4cccs4)n3)cc21 |
| 919 | COC(=O)C1=CN(c2ccc(Cl)cc2)c2cc(F)ccc2S1(=O)=O |
| 837 | Cc1nn(C)c(C)c1S(=O)(=O)N1CCC2(CC1)C(=O)N(C(C)C)C2c1ccccc1 (centres undefined) |
| 1040 | CCn1cc(-c2nc(CC(=O)Nc3cc(C)ccc3F)cs2)c2cccnc21 |
| 717 | Cc1ccc2c(c1)C(O)(CC(=O)c1ccc(F)cc1)C(=O)N2 (centres undefined) |
| 896 | Cc1ccccc1NC(=O)CN1C(=O)CCc2cc(S(=O)(=O)N3CCCCC3C)ccc21 (centres undefined) |
| 856 | Cc1nc(-c2cccc(NC(=O)c3cccc(F)c3)c2)cs1 |
| 756 | COC(=O)c1ccccc1NC(=O)Cn1nc2n(c1=O)CCCCC2 |
| 1150 | CCOc1nc2ccccc2nc1N1CCCC(C(=O)N2CCSCC2)C1 (centres undefined) |
| 688 | O=C(Cn1nc2nc(N3CCCC3)ccn2c1=O)NCc1ccc(F)cc1Cl |
| 895 | COc1cccc(Cn2cc(S(=O)(=O)N3CCCCCC3)ccc2=O)c1 |
| 683 | COc1ccc(-c2onc(C)c2C)cc1S(=O)(=O)N1CCN(c2ccccn2)CC1 |
| 799 | Cc1ccc(S(=O)(=O)N2CCC(CCC(=O)O)CC2)cc1 |
| 848 | CCNC(=O)C1CCN(c2nc3ccc(-c4ccccc4F)nc3s2)CC1 |
| 730 | Cc1ccc(-c2nnc(C)c(NCc3ccc4c(c3)OCO4)n2)cc1 |

| SMILES | RP-LC retention time [s] |
| --- | --- |
| COc1ccccc1CCC(=O)N1CCC2(CC1)NCc1ccccc1-n1ccnc12 | 623 |
| C=CCN1C[C@@H](C)N([C@H](c2ccc(C(=O)N(CC)CC)cc2)c2cccc(OC)c2)C[C@@H]1C | 770 |
